Values after ≈ are worked out from the molar mass of the structure shown.
System: multi-drug resistant (MDR) clinical isolates
Experiment: microbe, parasite or virus in culture
Type: cell-based, M. tuberculosis
Details: for level of activity relative to MFX: MDR isolates and H37Rv; for MIC / MIC80: Mycobacterium tuberculosis

Structure (SMILES) | level of activity relative to MFX | MIC [µM] | MIC80 (MDR isolate #13) [µM] | MIC80 (MDR isolate #33) [µM] | MIC80 (MDR isolate #48) [µM] | MIC80 (MDR isolate #61) [µM] | MIC80 (MDR isolate #80) [µM] | MIC80 (MDR isolate #125) [µM] | MIC80 (MDR isolate #137) [µM] | MIC80 (MDR isolate #143) [µM] | MIC80 (MDR isolate #146) [µM] | MIC80 (MDR isolate #171) [µM] | resistance of the MDR strains (all MDR tested strains)
CCc1nc2ccccn2c1C(=O)NCc1ccc(-c2ccccc2)cc1 [Compound 47, N-(Biphenyl-4-ylmethyl)-2-ethylimidazo[1,2-a]pyridine-3-carboxamide] | comparable to or better than MFX | ≤ 1.25 | 0.312 (≈ 0.111 µg/mL) | 0.312 (≈ 0.111 µg/mL) | 0.312 (≈ 0.111 µg/mL) | 0.312 (≈ 0.111 µg/mL) | 0.312 (≈ 0.111 µg/mL) | 0.625 (≈ 0.222 µg/mL) | 1.25 (≈ 0.444 µg/mL) | 1.25 (≈ 0.444 µg/mL) | 0.156 (≈ 0.0555 µg/mL) | 1.25 (≈ 0.444 µg/mL) | 
NNC(=O)c1ccncc1 [INH, Isoniazid, reference compound] |  |  | 5 (≈ 0.686 µg/mL) | 10 (≈ 1.37 µg/mL) | 10 (≈ 1.37 µg/mL) | 20 (≈ 2.74 µg/mL) | 5 (≈ 0.686 µg/mL) | 10 (≈ 1.37 µg/mL) | 20 (≈ 2.74 µg/mL) | 10 (≈ 1.37 µg/mL) | 20 (≈ 2.74 µg/mL) | 5 (≈ 0.686 µg/mL) | resistance was confirmed
CCc1nc2ccccn2c1C(=O)NCc1ccc(Oc2ccccc2)cc1 [Compound 54, 2-Ethyl-N-(4-phenoxybenzyl)imidazo[1,2-a]pyridine-3-carboxamide] | comparable to or better than MFX | ≤ 0.625 | 0.156 (≈ 0.058 µg/mL) | 0.156 (≈ 0.058 µg/mL) | 0.156 (≈ 0.058 µg/mL) | 0.156 (≈ 0.058 µg/mL) | 0.156 (≈ 0.058 µg/mL) | 0.312 (≈ 0.116 µg/mL) | 0.625 (≈ 0.232 µg/mL) | 0.312 (≈ 0.116 µg/mL) | 0.312 (≈ 0.116 µg/mL) | 0.312 (≈ 0.116 µg/mL) | 

From patent US8865734B2 (priority 2010, dated 2014)
